Columns and labels:
[1] = test system: Ang II and Ang-(1-7) levels in the renal tissue; test: Ang II and Ang-(1-7) level assessment in the renal tissue of SHR/WKY rats (ELISA); format: in vivo, rat; details: 20 mg/kg oral once daily for 42 days, ELISA (FIG. 1)
Protocol: (§1) A total of 20 Wistar-Kyoto rats (WKY) and 20 SHR (male, 16˜17 weeks old) animals were grouped into four: WKY group (8 WKY, orally administered 0.5% CMC-Na); SHR group (8 SHR, orally administered 0.5% CMC-Na); WKY+Ginsenoside M1 group (8 WKY, orally administered 20 mg/kgGinsenoside M1); SHR +Ginsenoside M1 group (8 SHR, orally administered 20 mg/kg Ginsenoside M1). Ginsenoside M1 or placebo administration was carried out once daily for 42 days is was followed by animal sacrifice and blood and renal tissue sample collection. The renal tissue specimens underwent fixation with 4% formalin (histopathology) or were snap-frozen with liquid nitrogen and kept at −80° C. for reverse transcription quantitative real-time polymerase chain reaction (RT-qPCR) and enzyme-linked immunosorbent assay (ELISA).
(§2) The supernatants of renal specimens were prepared as follows. A total of 100 mg of the renal tissue was homogenized in 900 μL of ice-cold normal saline and submitted to centrifugation (1000 g, 4° C. for 15 min). The resulting supernatants were kept at −80° C. until analysis with Ang II and Ang-(1-7) ELISA kits, respectively, in accordance with the manufacturer's protocols.

ACE [2] = test: IHC of ACE in the renal tissue of SHR/WKY rats; format: in vivo, rat; details: either WKY or SHR, 20 mg/kg oral once daily for 42 days, IHC (FIG. 2)
Protocol: as §1
(§3) ACE and ACE2 primary antibodies were produced by Bioss Antibodies. Peroxidase-linked goat anti-rabbit secondary antibodies and the DAB and two-step rabbit IHC kits were provided by ZSGB-BIO. IHC was carried out as proposed by ZSGB-BIO.

ACE2 [3] = test: IHC of ACE2 in the renal tissue of SHR/WKY rats; format: in vivo, rat; details: SHR, 20 mg/kg oral once daily for 42 days, IHC (FIG. 2)
Protocol: as §1, §3

[4] = test system: Ang II and Ang-(1-7) levels in the renal tissue; test: Ang II and Ang-(1-7) level assessment in the renal tissue of mice infused Ang II (ELISA); format: in vivo; details: C57BL/6 mice infused Ang II, 20 mg/kg oral daily for 14 days, ELISA (FIG. 3), vs Ang II group
Protocol: (§4) A total of twenty C57BL/6 mice (male, 10 weeks old) were maintained with rodent chow and water at will. Subcutaneous implantation of a 1002 osmotic minipump was performed at the dorsum of the neck for Ang II (1.5 mg/kg) or normal saline infusion animals were assigned to four groups: Saline group (5 mice, infused with normal saline and orally administered 0.5% CMC-Na); Ang II group (5 mice, infused with Ang II and orally administered 0.5% CMC-Na); Saline+Ginsenoside M1 group (5 mice, infused with normal saline and orally administered 20 mg·kg−1·d−1 Ginsenoside M1); Ang II +Ginsenoside M1 group (5 mice, infused with Ang II and orally administered 20 mg/kg Ginsenoside M1). Ginsenoside M1 or placebo administration was performed daily for 14 days, followed by animal sacrifice and blood and renal tissue sample collection. The renal tissue specimens underwent fixation with 4% formalin (histopathology) or were snap-frozen with liquid nitrogen and kept at −80° C. (RT-qPCR and ELISA).
as §2

ACE [5] = test: IHC of ACE in the renal tissue of mice (infusion model); format: in vivo; details: C57BL/6 mice infused saline or Ang II, 20 mg/kg oral daily for 14 days, IHC (FIG. 4)
Protocol: as §4, §3

ACE2 [6] = test: IHC of ACE2 in the renal tissue of mice (infusion model); format: in vivo; details: C57BL/6 mice infused Ang II, 20 mg/kg oral daily for 14 days, IHC (FIG. 4), vs the other three groups
Protocol: as §4, §3

[7] = test system: bleomycin-induced lung fibrosis; test: Bleomycin-induced lung alveolitis and fibrosis in mice (Szapiel scoring); format: in vivo
Protocol: The animals were randomly divided into 5 groups as: (1) Saline group: 0.9% saline (200 μL) injection via the tail vein; (2) ACE2 group: a single intraperitoneal injection of ACE2 (0.2 mg/kg); (3) BLM group: a single injection of bleomycin at 150 mg/kg via the tail vein; and (4) BLM+ACE2 group: an injection of bleomycin at 150 mg/kg via the tail vein, followed by an intraperitoneal injection of ACE2 at 0.2 mg/kg. (5) BLM+ACE2+M1 group: an injection of bleomycin at 150 mg/kg via the tail vein, followed by an intraperitoneal injection of 0.2 mg/kg ACE2 and 60mg/kg M1. After administration, ten animals randomly selected from each group were euthanized on days 7, 14 and 28 by cervical dislocation.
Administration of bleomycin is a well-characterized model of pulmonary alveolitis or fibrosis in mice. The fibrotic changes in the lungs were determined using the Szapiel scoring method, higher score indicating greater disease condition. […] On day 28, in the BLM group, alveolitis spontaneously resolved; however, derangement of the alveolar architecture continued, and fibrosis persisted, characterized by diffuse, dense, thick collagen bundles and fibroblast foci.

[8] = day 14, bleomycin 150 mg/kg tail vein, ACE2 0.2 mg/kg i.p.

Molecule: CC(C)=CCC[C@](C)(O[C@@H]1O[C@H](CO)[C@@H](O)[C@H](O)[C@H]1O)[C@H]1CC[C@]2(C)[C@@H]1[C@H](O)C[C@@H]1[C@@]3(C)CC[C@H](O)C(C)(C)[C@@H]3CC[C@]12C [Ginsenoside M1, 20-O-β-D-glucopyranosyl-20(S)-protopanaxadiol]
- Ang II levels in the renal tissue ([1]; SHR, vs SHR group): significantly reduced
- Ang-(1-7) amounts in the renal tissue ([1]; SHR, vs SHR group): significantly higher values compared with the SHR group
- Ang II levels in the renal tissue ([1]; WKY): limited effects
- ACE expression in the renal tissue (ACE [2]): no significant effect
- ACE2 amounts in the renal tissue (ACE2 [3]): further upregulate
- Ang II levels in the renal tissue [4]: attenuate this increase significantly
- Ang-(1-7) levels in the renal tissue [4]: significant increase compared with the Ang II group
- ACE expression in the renal tissue (ACE [5]): no marked differences
- ACE2 expression levels in the renal tissue (ACE2 [6]): markedly elevated

B1: ACE2: recombinant mouse ACE2 (angiotensin-converting enzyme 2) given by intraperitoneal injection (protein, UniProt Q8R0I0 18-805, looked up)
Angiotensin-converting enzyme …: QSLTEENAKTFLNNFNQEAEDLSYQSSLASWNYNTNITEENAQKMSEAAAKWSAFYEEQSKTAQSFSLQEIQTPIIKRQLQALQQSGSSALSADKNKQLNTILNTMSTIYSTGKVCNPKNPQECLLLEPGLDEIMATSTDYNSRLWAWEGWRAEVGKQLRPLYEEYVVLKNEMARANNYNDYGDYWRGDYEAEGADGYNYNRNQLIEDVERTFAEIKPLYEHLHAYVRRKLMDTYPSYISPTGCLPAHLLGDMWGRFWTNLYPLTVPFAQKPNIDVTDAMMNQGWDAERIFQEAEKFFVSVGLPHMTQGFWANSMLTEPADGRKVVCHPTAWDLGHGDFRIKMCTKVTMDNFLTAHHEMGHIQYDMAYARQPFLLRNGANEGFHEAVGEIMSLSAATPKHLKSIGLLPSDFQEDSETEINFLLKQALTIVGTLPFTYMLEKWRWMVFRGEIPKEQWMKKWWEMKREIVGVVEPLPHDETYCDPASLFHVSNDYSFIRYYTRTIYQFQFQEALCQAAKYNGSLHKCDISNSTEAGQKLLKMLSLGNSEPWTKALENVVGARNMDVKPLLNYFQPLFDWLKEQNRNSFVGWNTEWSPYADQSIKVRISLKSALGANAYEWTNNEMFLFRSSVAYAMRKYFSIIKNQTVPFLEEDVRVSDLKPRVSFYFFVTSPQNVSDVIPRSEVEDAIRMSRGRINDVFGLNDNSLEFLGIHPTLEPPYQPPVTIWLIIFGVVMALVVVGIIILIVTGIKGRKKKNETKREENPYDSMDIGKGESNAGFQNSDDAQTSF
- Signs of alveolitis or fibrosis without bleomycin ([7]; ACE2 group: single i.p. injection 0.2 mg/kg, no bleomycin, days 7, 14 and 28): No signs of alveolitis or fibrosis
- Pathological changes in the lung (alveolitis) ([7]; day 7, bleomycin 150 mg/kg tail vein, ACE2 0.2 mg/kg i.p.): did not significantly alter
- Alveolitis (Szapiel scoring) [7, 8]: significantly attenuated
- Fibrosis (Szapiel scoring) [7, 8]: significantly attenuated
- Alveolitis (Szapiel scoring) ([7]; day 28, bleomycin 150 mg/kg tail vein, ACE2 0.2 mg/kg i.p., with or without M1 60 mg/kg): only mild to moderate alveolitis
